Assay results reported in PubChem BioAssay AID248 (DTP/NCI, 2004).
Where “and” joins values, the source holds several entries; their conditions need not be identical. Identical values can stand only once. Inconclusive results and toxic doses are left out. No stated cut-off is given here; in the data, active means T/C of 150% or more; inactive means T/C below 125%.

System: L1210 leukemia ip in BDF1 mice, survival T/C
Experiment: NCI In Vivo Anticancer Drug Screen. Data for tumor model L1210 Leukemia (intraperitoneal) in B6D2F1 (BDF1) mice
Conditions: endpoint: mean survival time, higher = longer survival
Procedure, shortened: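 Read-out is survival time, reported as the treated-group measurement over the vehicle-control measurement.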

[1] = dose: 50.0 mg/kg/injection, schedule: Q04DX002 (ip), vehicle: Klucel (hydroxypropylcellulose) (HPC)
[2] = dose: 100.0 mg/kg/injection, schedule: Q01DX009 (ip), vehicle: Klucel (hydroxypropylcellulose) (HPC)
[3] = dose: 100.0 mg/kg/injection, schedule: Q04DX002 (ip), vehicle: Klucel (hydroxypropylcellulose) (HPC)
[4] = dose: 200.0 mg/kg/injection, schedule: Q01DX009 (ip), vehicle: Klucel (hydroxypropylcellulose) (HPC)
[5] = dose: 200.0 mg/kg/injection, schedule: Q04DX002 (ip), vehicle: Klucel (hydroxypropylcellulose) (HPC)
[6] = dose: 400.0 mg/kg/injection, schedule: Q04DX002 (ip), vehicle: Klucel (hydroxypropylcellulose) (HPC)
[7] = dose: 200.0 mg/kg/injection, schedule: Q01DX001 (ip), vehicle: saline
[8] = dose: 400.0 mg/kg/injection, schedule: Q01DX001 (ip), vehicle: saline
[9] = dose: 100.0 mg/kg/injection, schedule: Q01DX001 (ip), vehicle: saline
[10] = dose: 100.0 mg/kg/injection, schedule: Q04DX003 (ip), vehicle: saline with Tween-80
[11] = dose: 200.0 mg/kg/injection, schedule: Q04DX003 (ip), vehicle: saline with Tween-80
[12] = dose: 400.0 mg/kg/injection, schedule: Q04DX003 (ip), vehicle: saline with Tween-80
[13] = dose: 100.0 mg/kg/injection, schedule: Q04DX003 (ip), vehicle: Klucel (hydroxypropylcellulose) (HPC)
[14] = dose: 200.0 mg/kg/injection, schedule: Q04DX003 (ip), vehicle: Klucel (hydroxypropylcellulose) (HPC)
[15] = dose: 400.0 mg/kg/injection, schedule: Q04DX003 (ip), vehicle: Klucel (hydroxypropylcellulose) (HPC)
[16] = dose: 100.0 mg/kg/injection, schedule: Q01DX009 (ip), vehicle: saline with Tween-80
[17] = dose: 200.0 mg/kg/injection, schedule: Q01DX009 (ip), vehicle: saline with Tween-80
[18] = dose: 400.0 mg/kg/injection, schedule: Q01DX009 (ip), vehicle: saline with Tween-80
[19] = dose: 400.0 mg/kg/injection, schedule: Q01DX009 (ip), vehicle: Klucel (hydroxypropylcellulose) (HPC)

Measured: T/C

CC12OC(=O)CC1CC(=O)O2 (stereo not given)
inactive: dose: 100.0 mg/kg/injection, schedule: Q01DX001 (ip), vehicle: saline sonified 101 % of control | dose: 100.0 mg/kg/injection, schedule: Q01DX009 (ip), vehicle: saline sonified 109 % of control | dose: 200.0 mg/kg/injection, schedule: Q01DX001 (ip), vehicle: saline sonified 95 % of control | dose: 200.0 mg/kg/injection, schedule: Q01DX009 (ip), vehicle: saline sonified 105 % of control | dose: 400.0 mg/kg/injection, schedule: Q01DX001 (ip), vehicle: saline sonified 92 % of control | dose: 400.0 mg/kg/injection, schedule: Q01DX009 (ip), vehicle: saline sonified 102 % of control

COC(=O)c1ccc([N+](=O)[O-])o1
inactive: [1] 104 % of control | [2] 93 % of control | [3] 90 % of control | [4] 111 % of control | [5] 101 % of control | [6] 87 % of control

O=C(O)c1cccc(N2C(=O)C=CC2=O)c1
inactive: dose: 25.0 mg/kg/injection, schedule: Q04DX002 (ip), vehicle: Klucel (hydroxypropylcellulose) (HPC) 101 % of control | [1] 101 % of control

O=C1C(c2c[nH]c3ccc(Br)cc23)=Nc2ccc([N+](=O)[O-])cc21
inactive: [7] 96 % of control | [8] 93 % of control

c1ccc(NC2CCN(C3(c4ccccc4)CCCCC3)CC2)cc1
inactive: dose: 100.0 mg/kg/injection, schedule: Q04DX002 (ip), vehicle: saline 100 % of control

COC(=O)CC(c1ccccc1)N1CCCC1 (stereo not given)
inactive: [9] 98 % of control | [7] 104 % of control | [8] 108 % of control

Clc1nc2ccccc2n2nnnc12
inactive: dose: 15.0 mg/kg/injection, schedule: Q04DX003 (ip), vehicle: saline 101 % of control | dose: 30.0 mg/kg/injection, schedule: Q04DX003 (ip), vehicle: saline 98 % of control | dose: 60.0 mg/kg/injection, schedule: Q04DX003 (ip), vehicle: saline 86 % of control

CCc1nc(N(C)CC(=O)O)nc(CC)c1-c1ccccc1O
inactive: [1] 111 % of control | [3] 101 % of control and 86 % of control | [5] 104 % of control | [6] 86 % of control

CCOc1cc2cc(C(=O)O)sc2cc1OCC
inactive: [9] 101 % of control | [7] 110 % of control | [8] 104 % of control

CCCCCCCCC(=O)Nc1cccc(O)c1
inactive: [10] 96 % of control | [11] 101 % of control | [12] 96 % of control

CC(=O)Nc1ccc(O)cc1[N+](=O)[O-]
inactive: [13] 107 % of control | [14] 103 % of control | [15] 103 % of control

CCCCCC(/C=N/NC(=O)c1cccc2ccccc12)=C\c1ccccc1
inactive: [9] 94 % of control | [8] 97 % of control

O=C(NCCBr)c1ccc(N=Nc2ccccc2)cc1
inactive: dose: 20.0 mg/kg/injection, schedule: Q01DX009 (ip), vehicle: Klucel (hydroxypropylcellulose) (HPC) 95 % of control | dose: 20.0 mg/kg/injection, schedule: Q04DX003 (ip), vehicle: Klucel (hydroxypropylcellulose) (HPC) 103 % of control | dose: 40.0 mg/kg/injection, schedule: Q01DX009 (ip), vehicle: Klucel (hydroxypropylcellulose) (HPC) 95 % of control | dose: 40.0 mg/kg/injection, schedule: Q04DX003 (ip), vehicle: Klucel (hydroxypropylcellulose) (HPC) 103 % of control | dose: 80.0 mg/kg/injection, schedule: Q01DX009 (ip), vehicle: Klucel (hydroxypropylcellulose) (HPC) 91 % of control | dose: 80.0 mg/kg/injection, schedule: Q04DX003 (ip), vehicle: Klucel (hydroxypropylcellulose) (HPC) 105 % of control

c1ccc(-c2nc3ccccc3s2)nc1
inactive: [13] 109 % of control | [14] 98 % of control | [15] 88 % of control

O=C(O)c1cc(C(=O)O)cc(S(=O)(=O)F)c1
inactive: [16] 92 % of control | [10] 91 % of control | [17] 88 % of control | [11] 86 % of control | [18] 97 % of control | [12] 99 % of control

CCOC(=O)/C(C)=C\C1C(C)=CC(=O)CC1(C)C (stereo not given)
inactive: [13] 102 % of control | [14] 95 % of control | [15] 100 % of control

CC(=O)OC1CCC2(C)C(CCC3C4CC(N5CC5)C(C(C)=O)C4(C)CC(=O)C32)C1 (stereo not given)
inactive: dose: 100.0 mg/kg/injection, schedule: Q01DX001 (sc), vehicle: steriod suspending solution 99 % of control | dose: 200.0 mg/kg/injection, schedule: Q01DX001 (sc), vehicle: steriod suspending solution 100 % of control | dose: 400.0 mg/kg/injection, schedule: Q01DX001 (sc), vehicle: steriod suspending solution 94 % of control

CC/C(C)=N/NCCO
inactive: dose: 12.5 mg/kg/injection, schedule: Q01DX001 (ip), vehicle: saline 114 % of control | dose: 12.5 mg/kg/injection, schedule: Q01DX009 (ip), vehicle: saline 93 % of control | dose: 25.0 mg/kg/injection, schedule: Q01DX001 (ip), vehicle: saline 101 % of control | dose: 25.0 mg/kg/injection, schedule: Q01DX009 (ip), vehicle: saline 97 % of control | dose: 50.0 mg/kg/injection, schedule: Q01DX001 (ip), vehicle: saline 103 % of control and 104 % of control

c1cc[c]([Sn]([c]2ccccc2)([c]2ccccc2)[n]2cncn2)cc1
inactive: dose: 6.25 mg/kg/injection, schedule: Q04DX002 (ip), vehicle: saline with Tween-80 101 % of control | dose: 12.5 mg/kg/injection, schedule: Q04DX002 (ip), vehicle: saline with Tween-80 93 % of control | dose: 25.0 mg/kg/injection, schedule: Q04DX002 (ip), vehicle: saline with Tween-80 112 % of control

CC(C)(C)NC(=O)C1C2CCC1C2Cl (stereo not given)
inactive: dose: 75.0 mg/kg/injection, schedule: Q01DX001 (ip), vehicle: saline 96 % of control | dose: 150.0 mg/kg/injection, schedule: Q01DX001 (ip), vehicle: saline 92 % of control | dose: 300.0 mg/kg/injection, schedule: Q01DX001 (ip), vehicle: saline 90 % of control

CCCOc1ccc(Nc2c3ccccc3nc3ccccc23)cc1
inactive: [13] 102 % of control | [14] 96 % of control

CC#N.[CH-]=C(C)C.[Cl][Pt][Cl]
inactive: dose: 6.25 mg/kg/injection, schedule: Q04DX003 (ip), vehicle: water 95 % of control | dose: 12.5 mg/kg/injection, schedule: Q04DX003 (ip), vehicle: water 97 % of control | dose: 25.0 mg/kg/injection, schedule: Q04DX003 (ip), vehicle: water 100 % of control | dose: 50.0 mg/kg/injection, schedule: Q04DX003 (ip), vehicle: water 101 % of control

COC(=O)N/N=C/c1ccc(NC(C)=O)cc1
inactive: [2] 95 % of control | [4] 101 % of control | [19] 97 % of control

O=C(OCc1ccccc1)c1ccccc1
inactive: [16] 98 % of control | [17] 105 % of control | [18] 93 % of control

CC(C)(C)c1ccc(CC#N)cc1
inactive: dose: 25.0 mg/kg/injection, schedule: Q04DX003 (ip), vehicle: Klucel (hydroxypropylcellulose) (HPC) 97 % of control | dose: 50.0 mg/kg/injection, schedule: Q04DX003 (ip), vehicle: Klucel (hydroxypropylcellulose) (HPC) 94 % of control | [13] 90 % of control

O=C(Nc1ccc(F)c([N+](=O)[O-])c1)Nc1cccc2c(O)cccc12
inactive: [2] 101 % of control | [4] 103 % of control | [19] 97 % of control

COC(=O)c1ccccc1NC(=S)NC(=O)c1ccc(Cl)cc1Cl
inactive: dose: 100.0 mg/kg/injection, schedule: Q01DX001 (ip), vehicle: saline with Tween-80 92 % of control | [16] 97 % of control and 102 % of control | dose: 100.0 mg/kg/injection, schedule: Q04DX002 (ip), vehicle: saline with Tween-80 101 % of control and 88 % of control | [10] 87 % of control | dose: 200.0 mg/kg/injection, schedule: Q01DX001 (ip), vehicle: saline with Tween-80 92 % of control | [17] 95 % of control and 97 % of control | dose: 200.0 mg/kg/injection, schedule: Q04DX002 (ip), vehicle: saline with Tween-80 103 % of control and 92 % of control | [11] 90 % of control | dose: 400.0 mg/kg/injection, schedule: Q01DX001 (ip), vehicle: saline with Tween-80 89 % of control | [18] 97 % of control and 98 % of control | dose: 400.0 mg/kg/injection, schedule: Q04DX002 (ip), vehicle: saline with Tween-80 106 % of control and 88 % of control | [12] 92 % of control
